The text below walks through data of patent US8435982B2, “Pharmaceutical formulation containing lipophilic drugs and milk as a solubilizing/dispensing agent and method for the preparation thereof” (Pharmathen S.A., priority 2007, dated 2013).

Format in all cases: physicochemical
A short description of series [1]: Solubility studies in alkaline buffers. The following applies: for solubility at 48 h: 25 °C, thermodynamic from solid. As for the experimental part:
Solubility studies were performed at 25° C. in various buffers. More specifically:
An excess quantity of mefenamic acid powder was added to a 25 ml flask containing 15 ml of the appropriate aqueous medium. The flasks were placed in a thermostated water bath at 25° C. under constant shaking rate of 100 rpm for 48 h. The filtrated samples of mefenamic acid were monitored at 285 nm. Calibration curves were performed for every buffer, prior to measurements.

Series [2] can be described thus: Final pH of drug-buffer solution solubilized/dispersed in milk. As to the method: The appropriate buffer was added in milk gradually under magnetic stirring and the increase of the milk pH was measured. […] Subsequently, experiments were performed in order to evaluate if an active ingredient initially dissolved in buffer, when solubilized/dispersed in milk, is suitable for oral administration. […] The buffer volume was increased by 0.5 ml each time and the pH values after each addition were measured.

Series [3] is described as follows: Stability studies of NSAID alkaline buffer solutions. The following applies: for total amount of drug compared to the initial value: alkaline buffer solution pH 12. As to the method:
The drugs were dissolved in the following buffers: 0.2 M NaH2PO4—NaOH pH 12 and 0.05 M glycine-NaOH pH 12. A weighted amount of drug, corresponding to its therapeutic dose, was dissolved in the appropriate volume of alkaline buffer. […] Also, the pH values of the aqueous alkaline NSAIDs solutions were measured before storage and at the predetermined time points.

In brackets after ≈: the same amount, converted by molar mass. Read-outs that look alike come from different tables or passages of the source.

For the compound `Cc1c(Cl)cccc1Nc1ccccc1C(=O)O` [Tolfenamic acid], the solubility (as a rule, how much of the substance goes into solution per volume) at 48 h in series [1] (pH 12, aqueous buffer) was 35.1 mg/mL (≈ 134 mM). Besides, the “Final pH” value is given as 7.42 in series [2] (dose 100 mg, 10 mg/mL, 10 mL NaH2PO4/NaOH 0.2M (nominal pH=12) in 150 ml […] fat long duration milk (tolfenamic acid)); 6.75 in series [2] (dose 100 mg, 20 mg/mL, 5 mL NaH2PO4/NaOH 0.1M (nominal pH=12) in 150 ml […] fat long duration milk); 7.03 in series [2] (dose 100 mg, 20 mg/mL, 5 mL NaH2PO4/NaOH 0.2M (nominal pH=12) in 150 ml […] fat long duration milk); 7.34 in series [2] (dose 200 mg, 20 mg/mL, 10 mL NaH2PO4/NaOH 0.2M (nominal pH=12) in 150 ml […] fat long duration milk); 7.40 in series [2] (dose 300 mg, 25 mg/mL, 12 mL NaH2PO4/NaOH 0.2M (nominal pH=12) in 150 ml […] fat long duration milk).

Turning to `CN1C(C(=O)Nc2ccccn2)=C(O)c2sccc2S1(=O)=O` [Tenoxicam], the solubility at 48 h in series [1] (phosphate buffer, aqueous buffer, buffer 0.1M NaH2PO4/NaOH at nominal pH=12, read-out: solubility) came to 14.3 mg/mL (≈ 42.5 mM).

On to `Cc1cccc(Nc2ccccc2C(=O)O)c1C` [Mefenamic acid], for which the “solubility (FIG. 1)” value in series [1] (25° C., nominal pH range of 11-12, 0.2M NaH2PO4—NaOH buffer) was “greatly enhanced”. Moreover, the “Final pH” value amounted to 6.81 in series [2] (dose 50 mg, 10 mg/mL, 5 mL NaH2PO4/NaOH 0.2M (nominal pH=12) in 150 ml […] fat long duration milk); 7.01 in series [2] (dose 100 mg, 10 mg/mL, 10 mL NaH2PO4/NaOH 0.2M (nominal pH=12) in 150 ml […] fat long duration milk); 7.73 in series [2] (dose 500 mg, 25 mg/mL, 20 mL NaH2PO4/NaOH 0.2M (nominal pH=12) in 150 ml […] fat long duration milk); 7.35 in series [2] (dose 500 mg, 40 mg/mL, 12.5 mL NaH2PO4/NaOH 0.2M (nominal pH=12) in 150 ml […] fat long duration milk).

In the case of `Cc1cnc(NC(=O)C2=C(O)c3ccccc3S(=O)(=O)N2C)s1` [Meloxicam], in series [1] (aqueous buffer, buffer glycine/NaOH at nominal pH=12, read-out: solubility), the solubility at 48 h was determined as 15.4 mg/mL (≈ 43.8 mM).

Take `CS(=O)(=O)Nc1ccc([N+](=O)[O-])cc1Oc1ccccc1` [Nimesulide]: the “total amount of drug compared to the initial value” in series [3] (accelerated stability studies, 30° C.) is given as 99.7-100.2%; in series [3] (accelerated stability studies, 40° C.) it was 101-118%; in series [3] (long term studies at 25° C. (3 and 6 months)), 96.5-107%. In series [3] (both long term and accelerated studies, all three temperatures), the “change of pH (compared to the initial value)” value was 98.8-100.2%. For the same compound, the “% change of drug amount” value in series [3] (long term and accelerated stability studies) is listed as “within acceptable ranges”.
